Square brackets hold non-standard residues; d marks the D form. Peptide text beside a SMILES is read from it. * marks the point of attachment. ξ: configuration not given here. Dansyl = CN(C)c1cccc2c(S(=O)(=O)*)cccc12; ξL = CC(C)CC(N)C(=O)O
Test system: receptor labeled by the radioiodinated analogue of 1 (4, [125I]-YLFQPQRF-NH2); neuropeptide FF receptor
Test: Competitive radioligand binding against 4 ([125I]Y8F-amide)
Conditions: mixture-based positional scanning; difference from averaged radioligand displacement of whole library (0); about 80 a.u. = 10-fold change in Ki
Excerpt: Additionally, three-dimensional (3-D) molecular models of the known smaller-size neuropeptide FF antagonists 3 and 3a were constructed and their low-energy conformations were obtained in the AMBER force-field [Weiner, et al., J. Comput. Chem. 1986, 7, […].] by molecular dynamics calculations involving simulated annealing. A semi-empirical quantum chemical method with the PM3 parameterization [Stewart, J. Comput. Chem. 1989, 10, 209-220.] was used for the final geometry optimization. […] At least one of the rings in domain B is aromatic. No similarity between 3 and 3a outside these domains were apparent; therefore, the simultaneous presence of A and B domains in the structure of neuropeptide FF (1) antagonists is critical to the invention. Apparently, structural subunits (domain C) outside domains A and B should function in a cooperative manner in directing the pharmacophores into proper geometric positions when improved binding to the cognate receptor is to be obtained, which is associated with the improvement of the desired pharmacological effect. An approach involving mixture-based synthetic combinatorial libraries and positional scanning [(a) Houghten, et al., J. Med Chem. 1999, 42, 3743-3778.] was adopted in the search for preferred structural motifs in domain C that assist in achieving this objective in this invention. To allow for the use of 3 as a reference in this process, the guadinino group (A) was incorporated as part of an L-2-amino-5-{[amino(imino)methyl]amino}pentanoyl (arginyl, R, Arg) residue and 5-dimethylamino-1-naphthalenesulphonyl (dansyl) was chosen to form B (However, it must be emphasized that both R and dansyl are replaceable with moieties that bestow A and B domain attributes described in the invention).
Upon screening for residues to replace the glutamine of 3, serine (S) was the only building block in this position that increased the displacement of 4 in the radioligand-binding assay. Therefore, motifs present in dansyl-Gly-Ser-Arg-NH2, dansyl-Gly-Gln-Arg-NH2, dansyl-Gln-Ser-Arg-NH2, and dansyl-Gln-Gln-Arg-NH2 were chosen based on their affinity to the cognate receptor for further consideration as primary templates when designing the domain C of the compounds described in the invention herein. […]

| Relative Binding Index (RBI) [a.u.] | Structure (SMILES) |
| --- | --- |
| 11 | CN(C)c1cccc2c(S(=O)(=O)N[C@@H](Cc3ccccc3)C(=O)N[C@@H](CC(N)=O)C(=O)N[C@@H](CCCNC(=N)N)C(N)=O)cccc12 [Dansyl-FNR-amide] (Dansyl-Phe-Asn-Arg-NH2) |
| 13 | CN(C)c1cccc2c(S(=O)(=O)N[C@@H](Cc3ccccc3)C(=O)N3CCC[C@H]3C(=O)N[C@@H](CCCNC(=N)N)C(N)=O)cccc12 [Dansyl-FPR-amide] |
| 23 | CN(C)c1cccc2c(S(=O)(=O)N[C@@H](Cc3ccccc3)C(=O)N[C@@H](CCC(N)=O)C(=O)N[C@@H](CCCNC(=N)N)C(N)=O)cccc12 [Dansyl-FQR-amide] (Dansyl-Phe-Gln-Arg-NH2) |
| 8 | CN(C)c1cccc2c(S(=O)(=O)N[C@@H](Cc3ccccc3)C(=O)N[C@@H](CCCNC(=N)N)C(=O)N[C@@H](CCCNC(=N)N)C(N)=O)cccc12 [Dansyl-FRR-amide] (Dansyl-Phe-Arg-Arg-NH2) |
| 30 | CN(C)c1cccc2c(S(=O)(=O)N[C@@H](Cc3ccccc3)C(=O)N[C@@H](CO)C(=O)N[C@@H](CCCNC(=N)N)C(N)=O)cccc12 [Dansyl-FSR-amide] (Dansyl-Phe-Ser-Arg-NH2) |
| 15 | C[C@@H](O)[C@H](NC(=O)[C@H](Cc1ccccc1)NS(=O)(=O)c1cccc2c(N(C)C)cccc12)C(=O)N[C@@H](CCCNC(=N)N)C(N)=O [Dansyl-FTR-amide] (Dansyl-Phe-Thr-Arg-NH2) |
| 5 | CC(C)[C@H](NC(=O)[C@H](Cc1ccccc1)NS(=O)(=O)c1cccc2c(N(C)C)cccc12)C(=O)N[C@@H](CCCNC(=N)N)C(N)=O [Dansyl-FVR-amide] (Dansyl-Phe-Val-Arg-NH2) |
| 18 | CN(C)c1cccc2c(S(=O)(=O)N[C@@H](Cc3ccccc3)C(=O)N[C@@H](Cc3c[nH]c4ccccc34)C(=O)N[C@@H](CCCNC(=N)N)C(N)=O)cccc12 [Dansyl-FWR-amide] (Dansyl-Phe-Trp-Arg-NH2) |
| 8 | CN(C)c1cccc2c(S(=O)(=O)N[C@@H](Cc3ccccc3)C(=O)N[C@@H](Cc3ccc(O)cc3)C(=O)N[C@@H](CCCNC(=N)N)C(N)=O)cccc12 [Dansyl-FYR-amide] (Dansyl-Phe-Tyr-Arg-NH2) |
| −24 | C[C@H](NC(=O)CNS(=O)(=O)c1cccc2c(N(C)C)cccc12)C(=O)N[C@@H](CCCNC(=N)N)C(N)=O [Dansyl-GAR-amide] (Dansyl-Gly-Ala-Arg-NH2) |
| 7 | CN(C)c1cccc2c(S(=O)(=O)NCC(=O)N[C@@H](CC(=O)O)C(=O)N[C@@H](CCCNC(=N)N)C(N)=O)cccc12 [Dansyl-GDR-amide] (Dansyl-Gly-Asp-Arg-NH2) |
| 25 | CN(C)c1cccc2c(S(=O)(=O)NCC(=O)N[C@@H](CCC(=O)O)C(=O)N[C@@H](CCCNC(=N)N)C(N)=O)cccc12 [Dansyl-GER-amide] (Dansyl-Gly-Glu-Arg-NH2) |
| 24 | CN(C)c1cccc2c(S(=O)(=O)NCC(=O)N[C@@H](Cc3ccccc3)C(=O)N[C@@H](CCCNC(=N)N)C(N)=O)cccc12 [Dansyl-GFR-amide] (Dansyl-Gly-Phe-Arg-NH2) |
| 30 | CN(C)c1cccc2c(S(=O)(=O)NCC(=O)NCC(=O)N[C@@H](CCCNC(=N)N)C(N)=O)cccc12 [Dansyl-GGR-amide] |
| 19 | CN(C)c1cccc2c(S(=O)(=O)NCC(=O)N[C@@H](Cc3c[nH]cn3)C(=O)N[C@@H](CCCNC(=N)N)C(N)=O)cccc12 [Dansyl-GHR-amide] (Dansyl-Gly-His-Arg-NH2) |
| 32 | CC[C@H](C)[C@H](NC(=O)CNS(=O)(=O)c1cccc2c(N(C)C)cccc12)C(=O)N[C@@H](CCCNC(=N)N)C(N)=O [Dansyl-GIR-amide] (Dansyl-Gly-Ile-Arg-NH2) |
| 23 | CN(C)c1cccc2c(S(=O)(=O)NCC(=O)N[C@@H](CCCCN)C(=O)N[C@@H](CCCNC(=N)N)C(N)=O)cccc12 [Dansyl-GKR-amide] (Dansyl-Gly-Lys-Arg-NH2) |
| 17 | CC(C)C[C@H](NC(=O)CNS(=O)(=O)c1cccc2c(N(C)C)cccc12)C(=O)N[C@@H](CCCNC(=N)N)C(N)=O [Dansyl-GLR-amide] (Dansyl-Gly-Leu-Arg-NH2) |
| 25 | CSCC[C@H](NC(=O)CNS(=O)(=O)c1cccc2c(N(C)C)cccc12)C(=O)N[C@@H](CCCNC(=N)N)C(N)=O [Dansyl-GMR-amide] (Dansyl-Gly-Met-Arg-NH2) |
| 26 | CN(C)c1cccc2c(S(=O)(=O)NCC(=O)N[C@@H](CC(N)=O)C(=O)N[C@@H](CCCNC(=N)N)C(N)=O)cccc12 [Dansyl-GNR-amide] (Dansyl-Gly-Asn-Arg-NH2) |
| 28 | CN(C)c1cccc2c(S(=O)(=O)NCC(=O)N3CCC[C@H]3C(=O)N[C@@H](CCCNC(=N)N)C(N)=O)cccc12 [Dansyl-GPR-amide] (Dansyl-Gly-Pro-Arg-NH2) |

Second part, the molecule before the results:

| Structure (SMILES) | Relative Binding Index (RBI) [a.u.] |
| --- | --- |
| CN(C)c1cccc2c(S(=O)(=O)N[C@@H](CCC(=O)O)C(=O)N[C@@H](CO)C(=O)N[C@@H](CCCNC(=N)N)C(N)=O)cccc12 [Dansyl-ESR-amide] (Dansyl-Glu-Ser-Arg-NH2) | 37 |
| CC(O)C(NC(=O)C(CCC(=O)O)NS(=O)(=O)c1cccc2c(N(C)C)cccc12)C(=O)NC(CCCNC(=N)N)C(N)=O (stereo not drawn) [Dansyl-ETR-amide] (Dansyl-Glu-Thr-Arg-NH2; configuration not given here) | 22 |
| CC(C)[C@H](NC(=O)[C@H](CCC(=O)O)NS(=O)(=O)c1cccc2c(N(C)C)cccc12)C(=O)N[C@@H](CCCNC(=N)N)C(N)=O [Dansyl-EVR-amide] (Dansyl-Glu-Val-Arg-NH2) | 12 |
| CN(C)c1cccc2c(S(=O)(=O)N[C@@H](CCC(=O)O)C(=O)N[C@@H](Cc3c[nH]c4ccccc34)C(=O)N[C@@H](CCCNC(=N)N)C(N)=O)cccc12 [Dansyl-EWR-amide] (Dansyl-Glu-Trp-Arg-NH2) | 25 |
| CN(C)c1cccc2c(S(=O)(=O)N[C@@H](CCC(=O)O)C(=O)N[C@@H](Cc3ccc(O)cc3)C(=O)N[C@@H](CCCNC(=N)N)C(N)=O)cccc12 [Dansyl-EYR-amide] (Dansyl-Glu-Tyr-Arg-NH2) | 15 |
| C[C@H](NC(=O)[C@H](Cc1ccccc1)NS(=O)(=O)c1cccc2c(N(C)C)cccc12)C(=O)N[C@@H](CCCNC(=N)N)C(N)=O [Dansyl-FAR-amide] (Dansyl-Phe-Ala-Arg-NH2) | −40 |
| CN(C)c1cccc2c(S(=O)(=O)N[C@@H](Cc3ccccc3)C(=O)N[C@@H](CC(=O)O)C(=O)N[C@@H](CCCNC(=N)N)C(N)=O)cccc12 [Dansyl-FDR-amide] (Dansyl-Phe-Asp-Arg-NH2) | −9 |
| CN(C)c1cccc2c(S(=O)(=O)N[C@@H](Cc3ccccc3)C(=O)N[C@@H](CCC(=O)O)C(=O)N[C@@H](CCCNC(=N)N)C(N)=O)cccc12 [Dansyl-FER-amide] (Dansyl-Phe-Glu-Arg-NH2) | 9 |
| CN(C)c1cccc2c(S(=O)(=O)N[C@@H](Cc3ccccc3)C(=O)N[C@@H](Cc3ccccc3)C(=O)N[C@@H](CCCNC(=N)N)C(N)=O)cccc12 [Dansyl-FFR-amide] (Dansyl-Phe-Phe-Arg-NH2) | 8 |
| CN(C)c1cccc2c(S(=O)(=O)N[C@@H](Cc3ccccc3)C(=O)NCC(=O)N[C@@H](CCCNC(=N)N)C(N)=O)cccc12 [Dansyl-FGR-amide] (Dansyl-Phe-Gly-Arg-NH2) | 15 |
| CN(C)c1cccc2c(S(=O)(=O)N[C@@H](Cc3ccccc3)C(=O)N[C@@H](Cc3cnc[nH]3)C(=O)N[C@@H](CCCNC(=N)N)C(N)=O)cccc12 [Dansyl-FHR-amide] (Dansyl-Phe-His-Arg-NH2) | 4 |
| CCC(C)C(NC(=O)C(Cc1ccccc1)NS(=O)(=O)c1cccc2c(N(C)C)cccc12)C(=O)NC(CCCNC(=N)N)C(N)=O (stereo not drawn) [Dansyl-FIR-amide] (Dansyl-Phe-Ile-Arg-NH2; configuration not given here) | 16 |
| CN(C)c1cccc2c(S(=O)(=O)N[C@@H](Cc3ccccc3)C(=O)N[C@@H](CCCCN)C(=O)N[C@@H](CCCNC(=N)N)C(N)=O)cccc12 [Dansyl-FKR-amide] (Dansyl-Phe-Lys-Arg-NH2) | 7 |
| CC(C)CC(NC(=O)[C@H](Cc1ccccc1)NS(=O)(=O)c1cccc2c(N(C)C)cccc12)C(=O)N[C@@H](CCCNC(=N)N)C(N)=O (stereo partly drawn) [Dansyl-FLR-amide] (Dansyl-Phe-[ξL]-Arg-NH2) | 1 |
| CSCC[C@H](NC(=O)[C@H](Cc1ccccc1)NS(=O)(=O)c1cccc2c(N(C)C)cccc12)C(=O)N[C@@H](CCCNC(=N)N)C(N)=O [Dansyl-FMR-amide] (Dansyl-Phe-Met-Arg-NH2) | 9 |

Reference: US6960574B2, “Antagonists of RF-amide neuropeptides” (University of Florida, priority 2002, dated 2005)
